Substitutions are numbered along the chain they refer to. Where two headings read alike, the source gives them in different places.
How the values were obtained:
[1] = target: T1, ACD2 (ACCELERATED CELL DEATH 2; ACD2^40-320; Red Chlorophyll Catabolite Reductase) (Arabidopsis thaliana, UniProt Q8LDU4, E154A/D291H); test: intrinsic tryptophan fluorescence quenching; format: binding; details: 0.1 μM protein, 50 mM Na2HPO4 pH 8.0, 25 mM NaCl, 22°C, excitation 296 nm
T1 sequence (Q8LDU4 40-319 E154A/D291H): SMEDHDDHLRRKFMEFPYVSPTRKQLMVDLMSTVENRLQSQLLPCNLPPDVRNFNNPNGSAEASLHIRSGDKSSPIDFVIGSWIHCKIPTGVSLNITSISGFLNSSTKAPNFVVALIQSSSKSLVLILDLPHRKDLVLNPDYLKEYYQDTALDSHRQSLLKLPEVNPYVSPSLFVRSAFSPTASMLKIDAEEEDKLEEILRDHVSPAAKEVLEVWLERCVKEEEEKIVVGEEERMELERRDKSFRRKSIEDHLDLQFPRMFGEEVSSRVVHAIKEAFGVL

[2] = target: T2, ACD2 (ACCELERATED CELL DEATH 2; ACD2^40-320; Red Chlorophyll Catabolite Reductase) (Arabidopsis thaliana, UniProt Q8LDU4); test: intrinsic tryptophan fluorescence quenching; format: binding
T2 sequence (Q8LDU4 40-319): T1 sequence (Q8LDU4 40-319 E154A/D291H) with A115E, H252D

| Compound | Kd [1] [µM] | Kd ([2]; 0.1 μM protein, 50 mM Na2HPO4 pH 8.0, 25 mM NaCl, 22°C, excitation 296 nm) [µM] | Kd [2] [µM] |
| --- | --- | --- | --- |
| C=CC1=C(C)/C(=C/C2=NC(=C3\c4[nH]c(Cc5[nH]c(C=O)c(C)c5CC)c(C)c4C(=O)[C@@H]3C(=O)OC)/[C@@H](CCC(=O)O)[C@@H]2C)NC1=O [RCC] | 0.34 ± 0.03 | 0.36 ± 0.03 |  |
| C=CC1=C(C)c2cc3[nH]c(cc4nc(cc5[nH]c(cc1n2)c(C)c5CCC(=O)O)C(CCC(=O)O)=C4C)c(C)c3C=C [PPIX] |  |  | 0.31 ± 0.02 |

— publication PMC3274588 (The Plant Journal, 2011)
